# Measurements published in US20240082277A1, “MODIFIED ANTIHISTAMINE COMPOSITION AND ANTIVIRAL TREATMENT” (priority 2022, published 2024).
# Where a name gives a salt, the structure may show the parent alone. Read-outs that look alike come from different tables or passages of the source.
# Tests used:
# [1] = molecular target: T1, human H1 histamine receptors (HRH1) (Homo sapiens, UniProt P35367); experiment: HRH1 antagonist calcium flux assay (Fluo-8, FLIPR TETRA) in CHO-K1 cells; type: cell-based
# T1 construct: expressed in transfected cells; host or cells: CHO-K1
# T1 sequence (P35367 whole entry): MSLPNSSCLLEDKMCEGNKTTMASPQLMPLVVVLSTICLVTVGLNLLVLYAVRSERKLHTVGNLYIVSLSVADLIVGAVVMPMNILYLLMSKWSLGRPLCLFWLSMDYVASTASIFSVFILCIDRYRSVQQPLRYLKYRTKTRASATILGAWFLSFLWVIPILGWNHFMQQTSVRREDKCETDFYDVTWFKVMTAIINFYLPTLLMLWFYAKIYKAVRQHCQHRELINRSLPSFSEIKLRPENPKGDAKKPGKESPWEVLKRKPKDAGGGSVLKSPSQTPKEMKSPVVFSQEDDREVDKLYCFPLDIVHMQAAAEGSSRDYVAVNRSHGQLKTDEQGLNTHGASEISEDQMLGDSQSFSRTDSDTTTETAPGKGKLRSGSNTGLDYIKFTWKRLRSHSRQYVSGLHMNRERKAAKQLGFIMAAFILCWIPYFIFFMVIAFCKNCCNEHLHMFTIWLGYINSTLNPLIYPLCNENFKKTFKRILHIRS
# [2] = tested on: SARS-CoV-2 Delta (B.1.617.2)
# in vitro = details: African green monkey, Cytotoxicity (CC50)
# [3] = tested on: SARS-CoV-2 Omicron (B.1.1.529); experiment: microbe, parasite or virus in culture
# [4] = tested on: SARS-CoV-2 Delta (B.1.617.2); experiment: microbe, parasite or virus in culture
# [5] = tested on: SARS-CoV-2 Omicron (B.1.1.529)
# [6] = CHO-K1, read-out: Normalized % Inhibition
# [7] = Severe acute respiratory syndrome coronavirus 2, VeroE6/TMPRSS2, read-out: % cell viability
compound,measurement,setting,value
O=C(O)COCCN1CCN(C(c2ccccc2)c2ccc(Cl)cc2)CC1 (stereo not shown) [Cetirizine Dihydrochloride],inhibition at 0.01 µM,[1]; [6],23.9%
same,inhibition at 0.03 µM,[1]; [6],23.6%
same,inhibition at 0.1 µM,[1]; [6],15.3%
same,inhibition at 0.3 µM,[1]; [6],14.2%
same,inhibition at 1 µM,[1]; [6],31.3%
same,inhibition at 3 µM,[1]; [6],67.3%
same,inhibition at 10 µM,[1]; [6],98.9%
same,inhibition at 100 µM,[1]; [6],99.3%
same,inhibition at 30 µM,"[1]; CHO-K1, 30000 nM, antagonist assay vs 70 nM histamine, read-out: Normalized % Inhibition",100%
"CN(C)CCOC(c1ccccc1)c1ccccc1 [Diphenhydramine hydrochloride, reference compound]",Effect on percentage infection (in words),[2],slight reduction in percentage infection was seen
same,Effect on percentage infection (in words),"[2]; Therapeutic treatment, Delta strain",slight reduction in percentage infection was seen
NCCc1c[nH]cn1 [Histamine],RLU (maximum Relative Light Unit),[1],3431.5 RLU
"CN(C)CCO[Si](C)(c1ccccc1)c1ccccc1 [Q-Ant #8, N,N-dimethyl-2-((methyldiphenylsilyl)oxy)ethan-1-amine]",CC50,in vitro,613 µg/mL
same,Effect on percentage infection (in words),[2],No effect was seen
same,Efficacy (EC50) Delta,[2],483.0 µg/mL
same,Selectivity index Delta (CC50/EC50),[2]; Therapeutic treatment,0.86
same,Cytotoxicity (CC50),Vero E6 TMPRSS2 cells; African green monkey,415.3 µg/mL
same,Toxicity (in words),Vero E6 TMPRSS2 cells; compared with traditional antihistamines,less toxic than traditional antihistamines
same,viability at 0.318 µg/mL,[3]; [7],105%
same,viability at 1.004 µg/mL,[3]; [7],91.3%
same,viability at 3.174 µg/mL,[3]; [7],96.8%
same,viability at 10.029 µg/mL,[3]; [7],105%
same,viability at 31.691 µg/mL,[3]; [7],101%
same,viability at 100.144 µg/mL,[3]; [7],89.8%
same,viability at 316.456 µg/mL,[3]; [7],36.8%
same,viability at 0.318 µg/mL,[4]; [7],102%
same,viability at 1.004 µg/mL,[4]; [7],93.9%
same,viability at 3.174 µg/mL,[4]; [7],95%
same,viability at 10.029 µg/mL,[4]; [7],100%
same,viability at 31.691 µg/mL,[4]; [7],99.4%
same,viability at 100.144 µg/mL,[4]; [7],98.2%
same,viability at 316.456 µg/mL,[4]; [7],73.5%
same,Effect on percentage infection (in words),[5],reduction in percentage infection was seen
same,Efficacy (EC50) Omicron,[5],245.6 µg/mL
same,Selectivity index Omicron (CC50/EC50),[5]; Therapeutic treatment,1.69
same,IC50,[1],33.5 nM
same,inhibition at 1 µM,[1]; [6],97.7%
same,inhibition at 0.0003 µM,"[1]; CHO-K1, 0.3 nM, antagonist assay vs 70 nM histamine, read-out: Normalized % Inhibition",-32.6%
same,inhibition at 0.001 µM,"[1]; CHO-K1, 1 nM, antagonist assay vs 70 nM histamine, read-out: Normalized % Inhibition",-33.4%
same,inhibition at 0.003 µM,"[1]; CHO-K1, 3 nM, antagonist assay vs 70 nM histamine, read-out: Normalized % Inhibition",-31%
same,inhibition at 0.01 µM,"[1]; CHO-K1, 10 nM, antagonist assay vs 70 nM histamine, read-out: Normalized % Inhibition",-11.9%
same,inhibition at 0.03 µM,"[1]; CHO-K1, 30 nM, antagonist assay vs 70 nM histamine, read-out: Normalized % Inhibition",29.4%
same,inhibition at 0.1 µM,"[1]; CHO-K1, 100 nM, antagonist assay vs 70 nM histamine, read-out: Normalized % Inhibition",72.9%
same,inhibition at 0.3 µM,"[1]; CHO-K1, 300 nM, antagonist assay vs 70 nM histamine, read-out: Normalized % Inhibition",97.1%
CCC(CC)COC(=O)[C@H](C)N[P@](=O)(OC[C@H]1O[C@@](C#N)(c2ccc3c(N)ncnn23)[C@H](O)[C@@H]1O)Oc1ccccc1 [Remdesivir],viability at 0.004 µg/mL,[3]; [7],101%
same,viability at 0.012 µg/mL,[3]; [7],95.9%
same,viability at 0.038 µg/mL,[3]; [7],106%
same,viability at 0.12 µg/mL,[3]; [7],105%
same,viability at 0.38 µg/mL,[3]; [7],92.8%
same,viability at 1.202 µg/mL,[3]; [7],84.1%
same,viability at 3.797 µg/mL,[3]; [7],44.6%
same,viability at 12 µg/mL,[3]; [7],20.7%
same,EC50,"[3]; Severe acute respiratory syndrome coronavirus 2, VeroE6/TMPRSS2, read-out: Efficacy (EC50) Omicron",~3 µg/mL
same,viability at 0.004 µg/mL,[4]; [7],105%
same,viability at 0.012 µg/mL,[4]; [7],91.3%
same,viability at 0.038 µg/mL,[4]; [7],96.8%
same,viability at 0.12 µg/mL,[4]; [7],105%
same,viability at 0.38 µg/mL,[4]; [7],101%
same,viability at 1.202 µg/mL,[4]; [7],89.8%
same,viability at 3.797 µg/mL,[4]; [7],36.8%
same,EC50,"[4]; Severe acute respiratory syndrome coronavirus 2, VeroE6/TMPRSS2, read-out: Efficacy (EC50) Delta",~3 µg/mL
